Converted amounts (≈) assume the structure as drawn. Where two headings read alike, the source gives them in different places.
Legend:
[1] = design: method as in PMID 22382166; settings: cited from earlier work
[2] = system: C. albicans SC5314; assay: MIC assay (CLSI M27-A3 microbroth); format: cell-based; settings: Candida albicans
Procedure: (§1) For the minimum inhibitory concentration (MIC) assay, strains for testing were grown on YPD agar for 24 hours, and subcultured to YPD broth medium. Whole strains were incubated for 18 hours at 35 °C by shaking incubator. Grown organisms were diluted with fresh RPMI 1640 medium to appropriate concentration, 5 × 10^4 CFU/ml. Cultures were inoculated to 96-well plates containing antifungal medium. All compounds were dissolved using Dimethyl Sulfoxide (DMSO) and diluted broth media. Fungal diluted solution and antifungal medium were mixed at 1:1 ratio so total 200 ul mixed medium was made. Whole experiment plates were incubated for 24 hours at 37 °C. […] The MICs were calculated in duplicate using the Clinical and Laboratory Standards Institute M27-A3 microbroth methodology. Hemolysis experiments and the 3-(4,5-dimethylthiazol-2-yl)-5-(3-carboxymethoxyphenyl)-2-(4-sulfophenyl)-2H-tetrazolium (MTS) cell proliferation colorimetric assay were performed following known procedures[12],[27],[29].

[3] = system: Candida albicans KCTC7965; assay: MIC assay (CLSI M27-A3 microbroth); format: cell-based
Procedure: as §1

[4] = system: C. albicans SL28; assay: MIC assay (CLSI M27-A3 microbroth); format: cell-based; settings: Candida albicans
Procedure: as §1

[5] = system: C. albicans SL38; assay: MIC assay (CLSI M27-A3 microbroth); format: cell-based; settings: Candida albicans
Procedure: as §1

[6] = in vivo; settings: male, SD, rat, iv, 1 mg/kg
[7] = system: horse blood cells; format: cell-based
Procedure: as §1

[8] = Microsomal (metabolic) stability; format: in vitro ADME; settings: human liver microsomes 1.0 mg/ml; for half-life at 1 µM / microsomal CLint at 1 µM / remaining at 80 min, 1 µM: pH 7.4; for remaining at 80 min, 1 µM: 80-min incubation
Procedure: A metabolic stability experiment was conducted to calculate the rate of disappearance of polyene macrolides following in vitro incubation with human microsomes. Working solutions of polyene macrolides were prepared from a 10 mM stock solution in dimethyl sulfoxide (DMSO) diluted to a final concentration of 1 µM in 0.1 M potassium phosphate buffer (pH 7.4). Each incubation mixture included 1 mg/mL human microsomal protein (BD Gentest^TM, Franklin Lakes, NJ, USA) and 1 mM NADPH. The reactions were terminated at 0, 15, 45, and 80 min. The reaction mixtures were vigorously vortexed and then analyzed using the API2000 LC-MS/MS) system (Applied Biosystems, USA) using an Xterra MS C18 (3.5-µm, 2.1 × 50 mm, Waters).

[9] = Single intravenous dose acute toxicity; format: in vivo, mice; settings: both sexes, ICR, mouse, in vivo; mice, single intravenous administration; read-out: LD50, median lethal dose (dose causing 50% mortality)
Procedure: All in vivo mouse toxicity studies were conducted according to Testing Guidelines for Safety Evaluation of Drugs[32] and the Organisation for Economic Co-operation and Development (OECD) Guideline[33]. Male and female ICR mice were used 7 weeks old for the toxicity test. […] The single doses were 1, 2.5, and 5 mg per kg body weight.

[10] = design: method as in PMID 22382166; settings: cited from earlier work; remark: listed apart in the source
[11] = cited from earlier work
[12] = rats, oral administration
[13] = 7-day repeated intravenous dose toxicity; format: in vivo, mice; settings: both sexes, ICR, mouse, in vivo; mice, 7-day repeated intravenous doses; read-out: MTD, maximal tolerated dose
Procedure: All in vivo mouse toxicity studies were conducted according to Testing Guidelines for Safety Evaluation of Drugs[32] and the Organisation for Economic Co-operation and Development (OECD) Guideline[33]. Male and female ICR mice were used 7 weeks old for the toxicity test. […]

[14] = in vivo; settings: mouse, 1 mg/kg
From the text: Supplement 41598_2018_31801_MOESM1_ESM.docx, table 4: Table S4.

[15] = system: C. albicans SC5314; assay: In vivo efficacy, candidiasis-infected mouse model (survival); design: species or system Candida albicans; settings: ICR mice infected with C. albicans SC5314; low dose 0.1 mg/kg
From the text: The systemic infection animal model was established using 4-week-old male ICR mice. Five C. albicans strains, consisting of two standard (C. albicans SC5314 and KCTC7965) and three clinical (C. albicans SL23, SL28, and SL38) strains were intravenously injected into the lateral tail vein of the various mouse groups. The mice were daily monitored for signs and mortality, and then they were euthanized. Subsequently, the target pathogenic C. albicans strain and optimal concentration for systemic infection for C. albicans were determined. A clinical isolate of C. albicans (SC5314) was grown and subcultured at 35 °C on Sabouraud dextrose agar (SDA) before infection. Candidiasis was induced by injecting 5 × 10^5 CFU/mouse via the tail vein of six 4-week-old ICR male mice. Each animal in the treatment group was administered a subcutaneous injection of reconstituted polyene macrolides 4 h after the infection. The drug efficacy was investigated by determining the survival rates of the mice.

For CC(=O)NC1C(OC2C(C)OC(OC3C=CC=CC=CC=CCCC=CC=CC(C)C(O)C(C)C(C)OC(=O)CC(O)CC(O)CC(O)CCC(O)C(O)CC4(O)CC(O)C(C(=O)O)C(C3)O4)C(O)C2N)OC(CO)C(O)C1O (stereo not drawn) [NPP A1, nystatin-like Pseudonocardia polyene (NPP) A1], the “water-solubility, fold higher than nystatin A1” value [1] is given as 300 fold, the MIC ([2]; SC5314, read-out: Antifungal activity (MIC)) is given as 16 µg/mL (≈ 14.2 µM) and the MIC ([3]; Candida albicans, KCTC7965, read-out: Antifungal activity (MIC)) is given as 16 µg/mL (≈ 14.2 µM). It also gave an MIC ([4]; SL28, read-out: Antifungal activity (MIC)) of 16 µg/mL (≈ 14.2 µM), an MIC ([5]; SL38, read-out: Antifungal activity (MIC)) of 16 µg/mL (≈ 14.2 µM) and an AUC(0-inf) ([6]; plasma) of 4470 ng·h/mL. For the same molecule, the AUC(0-t) ([6]; plasma) was 4390 ng·h/mL, the MRT inf ([6]; plasma) was 42 min and the Vd ([6]; plasma) was 0.1 L/kg. For the same molecule, the clearance ([6]; plasma) was 3.33 mL/min/kg, the half-life ([6]; plasma) was 36 min and the “Hemolytic activity (MHC, minimum hemolytic concentration)” value ([7]; 90% hemolysis against horse blood cells, ± percentage standard deviation) was 459.35 ± 32.5 µg/mL. The Clearance class [8] was “Low”, the half-life at 1 µM [8] was over 80 min and the microsomal CLint at 1 µM [8] was under 8600 µL/min/mg. For the same molecule, the remaining at 80 min, 1 µM [8] was 60.9%, the LD50 at 7 days [9] was 16.1 mg/kg and the “antifungal activity, lower than nystatin A1” value [10] was “approximately 50%”. The “hemolytic activity, fold reduced versus nystatin A1” value [11] was 10 fold, the “detection in the plasma following oral administration” value [12] was “not detected” and the MTD at 7 days [13] was 5 to 10 mg/kg. It also gave an AUC(0-inf) ([14]; read-out: AUC0-inf) of 12700 ng·h/mL, an AUC(0-t) ([14]; read-out: AUC0-t) of 12400 ng·h/mL and a clearance ([14]; read-out: CL (converted)) of 1.67 mL/min/kg. It also gave an MRT inf ([14]; read-out: MRTinf) of 66 min, a Vd ([14]; read-out: Vss) of 0.1 L/kg and a half-life ([14]; read-out: t1/2 (converted)) of 60 min.

For C[C@@H]1[C@H](O)[C@@H](C)/C=C/C=C/CC/C=C/C=C/C=C/C=C/[C@H](O[C@@H]2O[C@H](C)[C@@H](O)[C@H](N)[C@@H]2O)C[C@@H]2O[C@](O)(C[C@@H](O)[C@H](O)CC[C@@H](O)C[C@@H](O)C[C@@H](O)CC(=O)O[C@H]1C)C[C@H](O)[C@H]2C(=O)O [Nystatin A1, nystatin A1], the survival rate [15] was “gradually decreased”, the MIC ([2]; C. albicans SC5314, no visible growth, read-out: Antifungal activity (MIC)) was 4 µg/mL (≈ 4.32 µM) and the MIC ([3]; Candida albicans KCTC7965, no visible growth, read-out: Antifungal activity (MIC)) was 4 µg/mL (≈ 4.32 µM). For the same molecule, the MIC ([4]; C. albicans SL28, no visible growth, read-out: Antifungal activity (MIC)) was 4 µg/mL (≈ 4.32 µM), the MIC ([5]; C. albicans SL38, no visible growth, read-out: Antifungal activity (MIC)) was 4 µg/mL (≈ 4.32 µM) and the MRT inf ([6]; in vivo) was 48 min. It also gave an AUC(0-inf) ([6]; plasma) of 5300 ng·h/mL, an AUC(0-t) ([6]; plasma) of 5120 ng·h/mL and a Vd ([6]; plasma) of 0.2 L/kg. The clearance ([6]; plasma) was 3.33 mL/min/kg, the half-life ([6]; plasma) was 36 min and the “Hemolytic activity (MHC, minimum hemolytic concentration)” value ([7]; horse) was 66.17 ± 0.90 µg/mL. For the same molecule, the Clearance class [8] was “Low”, the half-life at 1 µM [8] was over 80 min and the microsomal CLint at 1 µM [8] was under 8600 µL/min/mg. For the same molecule, the remaining at 80 min, 1 µM [8] was 115%, the LD50 at 7 days [9] was 5.37 mg/kg and the MTD at 7 days [13] was 2 to 4 mg/kg. For the same molecule, the AUC(0-inf) [14] was 7150 ng·h/mL, the AUC(0-t) [14] was 7120 ng·h/mL and the MRT inf [14] was 54 min. It also gave a Vd [14] of 0.1 L/kg, a clearance [14] of 1.67 mL/min/kg and a half-life [14] of 36 min.
